Test results taken from the METLIN SMRT retention time set (Domingo-Almenara et al. 2019).

Assay: gradient 5% acetonitrile 3 min, to 50% in 2 min, to 85% in 15 min, held 3 min, 100 µL/min
Details: column: Zorbax Extend-C18 2.1 x 50 mm; eluents: water / acetonitrile, 0.1% formic acid
Method in brief: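 Retention time was recorded from adduct peaks, which were picked computationally and each inspected manually. Pure standards ran in mixtures of ~100 molecules on HPLC coupled to a quadrupole time-of-flight mass spectrometer, in positive and negative ionization mode, through a Zorbax Extend-C18 column (2.1 × 50 mm, 1.8 μm) at 100 μL/min. Eluents were water and acetonitrile, each with 0.1% formic acid.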

## CCCNC(=O)N1CCCN(C2=NS(=O)(=O)C(c3ccc(Cl)cc3)=C2C)CC1
  RP-LC retention time: 794 s

## O=S(=O)(Cc1ccccc1F)N1CCc2nnc(C3CC3)n2CC1
  RP-LC retention time: 626 s

## CN(C)C(=O)c1ccc2c(c1)N(CC(=O)NCc1cccc(Cl)c1)C(=O)C1CCCCN21 (centres undefined)
  RP-LC retention time: 619 s

## CCCC(=O)N1CCCn2nc(-c3ccncc3)cc2C1
  RP-LC retention time: 577 s

## CCOC(=O)c1c(C)[nH]c(C(=O)N2CCCC(C(=O)NCCCN3CCOCC3)C2)c1C (centres undefined)
  RP-LC retention time: 593 s

## Cc1c(C)n(-c2ccccc2)c2ncn(CC(=O)NC(C)Cc3ccco3)c(=O)c12 (centres undefined)
  RP-LC retention time: 848 s

## CCc1nc2cc(-c3noc(CCc4c[nH]c5ccccc45)n3)ccc2o1
  RP-LC retention time: 1050 s

## O=C(c1c(F)cccc1Cl)N1CCN(c2ccc3nnc(-c4ccco4)n3n2)CC1
  RP-LC retention time: 680 s

## CC(=O)Oc1ccccc1C1=NN(C(C)=O)C(c2ccc(Cl)cc2)O1 (centres undefined)
  RP-LC retention time: 1020 s

## CCc1nc2cc(N3CCC(C(=O)NCc4cccc(F)c4)CC3)cnc2nc1CC
  RP-LC retention time: 840 s

## O=C(NC1CCN(c2cc(-c3ccccc3)[nH]n2)C1)c1ccc(F)c(Cl)c1 (centres undefined)
  RP-LC retention time: 767 s

## CCOCCCNC(=O)C1CCN(c2cc(Sc3cc(C)ccc3C)ncn2)CC1
  RP-LC retention time: 775 s

## CC(=O)Nc1ccc(-c2nc(-c3ccc4c(c3)oc(=O)n4C)no2)cc1
  RP-LC retention time: 819 s

## COc1ccc(Cl)cc1NC(=O)c1c(C)oc2c1C1=NCCN1C=N2
  RP-LC retention time: 674 s

## Cc1ccc(NS(=O)(=O)c2cc3c4c(c2)CCC(=O)N4CCC3)c(C)c1
  RP-LC retention time: 840 s

## CSc1ccc(CNC(=O)C2CCN(c3cc(=O)n(C)c(=O)n3C)CC2)cc1
  RP-LC retention time: 694 s

## O=C1CCCc2cc(S(=O)(=O)N3CCC(C(=O)NCCc4ccc(Cl)cc4)CC3)ccc2N1
  RP-LC retention time: 776 s

## CCOc1ccc(NC(=O)N2CCC3(C2)C(=O)Nc2ccccc23)cc1 (centres undefined)
  RP-LC retention time: 720 s

## O=C(Cn1cccc1-c1nc(-c2ccc(Cl)cc2)cs1)N1CCN(c2ccccn2)CC1
  RP-LC retention time: 772 s

## O=c1ccc(S(=O)(=O)N2CCOCC2)cn1Cc1cccc(Cl)c1
  RP-LC retention time: 809 s

## COc1ccc(-c2nnc(Cc3nc(-c4ccc5c(c4)OCO5)no3)o2)cc1OC
  RP-LC retention time: 940 s

## Cc1nc(C(=O)N2CC(F)(F)C[C@H]2c2nc(C3CC3)no2)co1
  RP-LC retention time: 768 s

## O=C(Cn1c(=O)n(-c2ccccc2)c2ncccc21)NC1CCN(Cc2ccccc2)CC1
  RP-LC retention time: 630 s

## O=C(c1ccco1)N1CCCC1c1nc(-c2cccc(C(F)(F)F)c2)no1 (centres undefined)
  RP-LC retention time: 1020 s

## CC(C)NC(=O)C1CCc2sc(C(=O)N3CCCCC3)cc2C1 (centres undefined)
  RP-LC retention time: 779 s

## O=C1CCN(C(=O)c2cccs2)CCCCCCN1
  RP-LC retention time: 622 s

## CCc1ccc(NC(=O)Cc2nnc3c(-c4nc(C5CC5)no4)cccn23)cc1
  RP-LC retention time: 805 s

## Cc1nc2cc(N3CCC(C(=O)Nc4ccc(N5CCOCC5)cc4)CC3)cnc2nc1C
  RP-LC retention time: 649 s

## Cc1cc(N2CCN(C(=O)Nc3cccc(Cl)c3)CC2)nc(N2CCOCC2)n1
  RP-LC retention time: 672 s

## CCCn1c(CCC(=O)Nc2ccc3c(c2)OCCO3)nc2cccnc21
  RP-LC retention time: 662 s

## Cc1c(-c2noc(-c3ccccc3)n2)nnn1Cc1ccccc1
  RP-LC retention time: 1060 s

## Cc1nn(C(C)C(=O)NCCCN2CCC(N3CCCCC3)CC2)c(=O)c2c1sc1ccccc12 (centres undefined)
  RP-LC retention time: 592 s

## CCCn1cnc2cc(CNC(=O)C3CC(=O)N(c4cccc(Cl)c4)C3)ccc21 (centres undefined)
  RP-LC retention time: 659 s

## CCOC(=O)c1cnc2c(C)cc(C)cc2c1NCCCN(C)C
  RP-LC retention time: 565 s

## O=C(NCCCc1ccccc1)C1CCN(c2nnc3ccc(Cl)cn23)CC1
  RP-LC retention time: 760 s

## Cc1ccc(C(=O)NCCCN2CCCC2)cc1NC(=O)C1=CSCCO1
  RP-LC retention time: 596 s

## Cc1[nH]c(C)c(S(=O)(=O)N2CCC(C(=O)N3CCc4ccccc43)CC2)c1C(=O)N1CCCCC1
  RP-LC retention time: 778 s

## COc1cccc(CNC2=NCCNC23CCN(S(=O)(=O)c2ccc4c(c2)CCCC4)CC3)c1
  RP-LC retention time: 822 s

## COc1ccc(CC(=O)Nc2nnc(SCC(=O)NC3=NCCS3)s2)cc1
  RP-LC retention time: 682 s

## CC(C)NC(=O)CSc1nnc(CNC(=O)c2ccc(S(=O)(=O)N(C)C)cc2)o1
  RP-LC retention time: 625 s

## COCc1noc([C@@H]2CC(F)(F)CN2C(=O)C2CCC2)n1
  RP-LC retention time: 746 s

## Cc1ccn2cc(C(=O)NCCC(C)C)nc2c1
  RP-LC retention time: 640 s

## CCCCNC(=O)C1CCCN(C(=O)c2[nH]c(C)c(C(=O)OC)c2C)C1 (centres undefined)
  RP-LC retention time: 692 s

## COc1cccc(-c2[nH]ncc2CN2C[C@@H]3CCN(S(C)(=O)=O)C[C@]3(CF)C2)c1
  RP-LC retention time: 599 s

## Oc1cc(-n2cccn2)c(O)cc1-n1cccn1
  RP-LC retention time: 868 s

## CCn1ncc(CN2CCCCC2CCn2cc(-c3ccccc3)nn2)c1C (centres undefined)
  RP-LC retention time: 530 s

## CN1C(=O)c2cccnc2Sc2cc(NC(=O)c3cc(Cl)ccc3F)ccc21
  RP-LC retention time: 859 s

## O=c1ccc(-c2ccc3c(c2)OCO3)nn1CCc1nc(-c2ccc3c(c2)OCO3)no1
  RP-LC retention time: 893 s

## COc1ccc(N2CCN(Cc3cc(=O)c(OC)cn3CC(=O)NC(C)C)CC2)cc1
  RP-LC retention time: 557 s

## CCC1CN(C(=O)N2CCC(C(=O)NCCN3CCCC3)CC2)c2ccccc2O1 (centres undefined)
  RP-LC retention time: 620 s

## COc1ccc(NC(=O)Cn2nc3nc(N4CCOCC4)ccn3c2=O)cc1F
  RP-LC retention time: 602 s

## CNc1nc(Nc2ccc(F)cc2)nc2ccccc12
  RP-LC retention time: 655 s

## Cc1nc(NC(=O)CNC(=O)c2c[nH]c3ccccc23)sc1C(=O)N(C)C
  RP-LC retention time: 614 s

## O=C(COc1ccc(Cl)cc1)Nc1nnc(SCC(=O)NC2CCCC2)s1
  RP-LC retention time: 798 s

## CCCCNC(=O)Cn1c(CC)nc2c(c1=O)CN(Cc1ccccc1)CC2
  RP-LC retention time: 605 s

## CCCCn1c(=O)c2ccccc2n(Cc2nc(-c3ccc(CC)cc3)no2)c1=O
  RP-LC retention time: 1310 s

## Cc1cc(-c2ccc(S(=O)(=O)N3CCC(C(=O)NC4CCCCCC4)CC3)o2)n[nH]1
  RP-LC retention time: 852 s

## CCCOc1nc2ccccc2nc1N1CCCC(C(=O)NC2CC2)C1 (centres undefined)
  RP-LC retention time: 1010 s

## O=C(Nc1ccccc1)c1n[nH]c2c1CCCCCC2
  RP-LC retention time: 957 s

## Cc1[nH]c(C(=O)N2CCCC(C(=O)NCc3ccc(Cl)cc3)C2)c(C)c1C(=O)OC(C)C (centres undefined)
  RP-LC retention time: 610 s

## Cc1noc(C2CN(C(=O)Nc3c(C)cccc3C)CC23CCOCC3)n1 (centres undefined)
  RP-LC retention time: 693 s

## COCCCNC(=O)CCc1c(C)n(C)c2nc(-c3ccccc3)nn2c1=O
  RP-LC retention time: 653 s

## CCOc1ccccc1-c1noc(Cn2ncn3nc(-c4ccc(F)cc4)cc3c2=O)n1
  RP-LC retention time: 1080 s

## Cc1cc(-c2csc(Nc3ccc(N(C)C)cc3)n2)ccc1F
  RP-LC retention time: 767 s

## COc1ccc(S(=O)(=O)N2CCC3(CC2)CC(C)(O)CCO3)cc1 (centres undefined)
  RP-LC retention time: 752 s

## COc1ccccc1CCC(=O)N(C)C[C@@]12CCC[C@H]1N(C)C(=O)CC2
  RP-LC retention time: 776 s

## CC1(O)CCOC2(CCN(C(=O)C3CCCC3)CC2)C1 (centres undefined)
  RP-LC retention time: 662 s

## Cn1c(=O)n(CC(=O)N2CCCCCC2)c(=O)c2cnc(-c3ccc(Cl)cc3)nc21
  RP-LC retention time: 1120 s

## COCc1cc(=O)n(Cc2cc(C)ccc2C)c(N2CCCC2)n1
  RP-LC retention time: 912 s

## CCOc1cccc(-c2noc(Cn3ccn(-c4ccccc4C)c(=O)c3=O)n2)c1
  RP-LC retention time: 911 s

## O=S(=O)(c1ccc2ccccc2c1)N1CCC(c2nc(-c3ccccn3)no2)CC1
  RP-LC retention time: 952 s

## CCN1C(=O)C(C)(C(=O)Nc2ccc(C(=O)OC)cc2)Oc2cccnc21 (centres undefined)
  RP-LC retention time: 861 s

## CCN1CCN(CCNC(=O)c2cnc(-c3ccc(C)cc3)nc2-c2ccncc2)CC1
  RP-LC retention time: 598 s

## CCOC(=O)c1ccccc1NC(=O)C1=Cc2ccccc2OC=C1
  RP-LC retention time: 1410 s

## Cc1coc2cc3oc(=O)c(CC(=O)N4CCC(C(N)=O)CC4)c(C)c3cc12
  RP-LC retention time: 654 s

## CCCCN(C)C(=O)Cn1c(=O)c2cnc(-c3ccc(Cl)cc3)nc2n(CC)c1=O
  RP-LC retention time: 1190 s

## CS(=O)(=O)N1CCC(C(=O)Nc2nnc(-c3ccc(F)cc3)o2)CC1
  RP-LC retention time: 636 s

## CCOc1ccc(OC(=O)C2CCN(c3nc4ccccc4[nH]3)CC2)cc1
  RP-LC retention time: 712 s

## CCOc1ccccc1C(=O)N1CCN(S(=O)(=O)c2cc3c4c(c2)CCC(=O)N4CCC3)CC1
  RP-LC retention time: 820 s

## Cc1ccc(C(=O)N2CCN(c3ccc(-c4nc(C)c(C)s4)cn3)CC2)s1
  RP-LC retention time: 891 s

## CCC(=O)N1CCc2cc(N3CC(C(=O)NC4CC4)CC3=O)ccc21 (centres undefined)
  RP-LC retention time: 620 s

## CCS(=O)(=O)N1CCc2c(c(CN(C(=O)c3ccccc3F)c3ccccc3)nn2C)C1
  RP-LC retention time: 774 s

## CN1C(=O)c2cccnc2Sc2cc(NC(=O)c3cccc(F)c3)ccc21
  RP-LC retention time: 790 s

## O=C1NC2(CCN(C(=O)c3ccc(F)cc3)CC2)N=C1c1ccc(Cl)cc1
  RP-LC retention time: 872 s

## Cc1cccc(NC(=O)Cn2ccc3ccc(-c4nnc(C)o4)cc32)n1
  RP-LC retention time: 700 s

## COc1ccc(-c2csc3c(=O)n(CC(=O)NC4CCCC4)cnc23)cc1
  RP-LC retention time: 832 s

## CCn1cnc(S(=O)(=O)N2CCC(C(=O)N3CCN(c4ccccn4)CC3)CC2)c1
  RP-LC retention time: 556 s

## c1ccc(-c2nnc(-c3nc(NCCCN4CCC(N5CCCCC5)CC4)c4ccccc4n3)o2)cc1
  RP-LC retention time: 550 s

## CN(C)c1ncccc1NC(=O)Nc1ccccc1F
  RP-LC retention time: 601 s
